Key:
[1] = system: supercoiled plasmid DNA; assay: In vitro DNA cleavage assay; format: biochemical
Method: Compound 3 was tested for its ability to cleave plasmid DNA in vitro in the presence of copper and the reducing agent ascorbic acid. Experiments were performed in a total of 20 μl, containing 10 mM NaH2PO4/Na2HPO4 buffer (pH 6.7), 1 μg of supercoiled plasmid DNA, 100 μM ascorbic acid, 25 μM drug compound (or vehicle), and 10 μM of CuSO4.5H20. The reaction mixture was incubated at 37° C. for 30 minutes, and 1 μl of 0.1 M EDTA was added to terminate the reaction. DNA loading buffer was added, and reactions were run at 80V for 80 minutes on a 1% agarose gel containing ethidium bromide.
To determine whether ions other than copper could suffice, DNA cleavage reactions were also carried out in the presence of zinc or iron. Reactions were performed as above, in the presence of 25 μM of CuSO4.5H20, ZnCl2, or FeCl2.4H20. […] Note that copper alone in the presence of ascorbic acid can shift the ratio of supercoiled DNA to open circular DNA.
To determine the ratios of compound to copper at which compound 3 was effective, reactions were performed as in FIG. 22A. The ratios of compound 3 to copper of 3:1, 2.5:1, 2:1, 1.5:1, and 1:1, as shown in FIG. 23 were achieved by maintaining the concentration of Cu constant at 10 μM, and varying the concentration of compound 3. The ratios of compound 3 to Cu of 1:1.5, 1:2, 1:2.5, and 1:3, were achieved by maintaining the concentration of compound 3 constant at 10 μM, and varying the concentration of copper.
Other compounds of Formula I, compounds 5, 7, 9 and 13 were also tested for their ability to cleave DNA at a ratio of 2.5:1 to copper (FIG. 23). Ratios of compound 3:copper as indicated, plus concentrations of copper in the absence of compound 3 were used in the DNA cleavage assay as described above.

[2] = system: KLF4; assay: KLF4 DNA binding activity, EMSA, HT-29 nuclear extracts; format: cell-based, human
Method: Based on overlapping transcription factor binding sites on KLF4 gene promoter region (as shown in FIG. 32A), MTF-1 binding may favor increased binding of other KLF4 inducers; Sp1 and KLF4.
Electrophoretic mobility shift assay (EMSA) was performed as follows. Nuclear extracts from HT-29 cells (10^7 cells in 100 mm culture dish in each experimental group) were prepared using nuclear extraction kit (Panomics, Redwood City, Calif.). EMSA assays were performed using KLF4 and Sp1 EMSA “Gel-Shift” kits (Panomics), by following the manufacturer's instruction. Briefly, 5 μg of nuclear extract was used for each binding reaction. After 30 min of binding reaction, the samples were separated on 6% polyacrylamide gel at 4° C. at 120 V, and transferred to BrightStar™-Plus positively charged nylon membrane. The biotin-labeled probes on the membrane were visualized by using ECL detection system (Panomics).

[3] = system: human colon adenocarcinoma cells HT-29; assay: Colon carcinoma HT-29 xenograft model, tumour growth; format: in vivo, CD-1 female nude mice
Method: The ability of compound 3 to inhibit colon tumour growth in vivo was tested as follows. CD-1 female nude mice (7 mice per treatment group, 6-7 weeks) were injected intraperitoneally with human colon adenocarcinoma cells HT-29 cells (3×10^6 cells in 0.1 ml PBS). Treatment of the mice with vehicle or 50 mg/kg/d of compound 3 was initiated 5 days post-inoculation (size of tumours=20-40 mm^3) for 7-day cycles of five days followed by a 2 day break for 5 weeks. The size of the tumours was measured over the course of the experiment using calipers, and the weight of the tumours was measured after the animals were sacrificed.
The ability of compounds 3, 5, and 7 to inhibit colon carcinoma cell growth in vivo was tested in the mouse xenograft model as described in Example 26. […]
The tumor regression efficacy of compound 3 was assessed in compound 3-treated HT-29-transplanted athymic mice (FIG. 54A), and correlated with gene expressions of MTF-1, KLF4 and Cyclin D1 in HT-29 xenograft tissues (FIG. 54B). […] The tumor size was measured during the course of treatment using calipers (FIG. 54A). […] The tumor tissues were excised, frozen immediately and stored at −80° C. until RNA extraction and gene expression was analyzed by RT-PCR (FIG. 54B). […]

[4] = system: CCRF-CEM leukemia cell line; assay: NCI DTP in vitro screen, CCRF-CEM; format: cell-based; settings: Homo sapiens
Method: For example, the following methodology, which is currently employed by the NCI, can be used to assess the GI50 of a candidate compound of Formula I in the selected cancer cell lines. Briefly, cell suspensions are diluted (5000-40,000 cells per well) and 100 μL of the diluted cell suspension is added into 96-well microtiter plates. Inoculates are allowed a preincubation period of 24 h at 37° C. for stabilization. Dilutions at twice the intended test concentration of the candidate compound are added at time zero in 100 μL aliquots to the microtiter plate wells. Test compounds are generally evaluated at five 10-fold dilutions. In routine testing, the highest well concentration is usually 10E-4 M, but this may be adjusted depending on the compound being tested. […] The cells are then assayed by using the sulforhodamine B assay (see, for example, Skehan, P., et al. (1990) JNCI, J. Natl. Cancer Inst. 82, 1107-1112; and Chen, S. F., et al. (1990) Proc. Am. Assoc. Cancer Res. 31, A2644) employing a plate reader which can be used to read the optical densities.
Compounds 2 and 3 were evaluated for their antiproliferative effects in a panel of 60 human cancer cell lines as part of the in vitro anticancer screening services provided by the DTP (Developmental Therapeutics Program) of the US National Cancer Institute (NCI).

For `Cc1[nH]c2ccccc2c1-c1nc2c3cccnc3c3ncccc3c2[nH]1` [Compound 3], the “cleavage of plasmid DNA” value ([1]; 25 μM ZnCl2 or FeCl2 instead of copper) was “Neither zinc nor iron was able to replace copper”, the “cleavage of plasmid DNA” value ([1]; 25 μM compound, 10 μM CuSO4, 100 μM ascorbic acid, 37° C., 30 minutes) was “able to cleave plasmid DNA” and the “cleavage of plasmid DNA” value ([1]; absence of copper or reducing agent) was “Neither compound 3 nor OP was able to cleave DNA”. For the same compound, the “cleavage of plasmid DNA” value ([1]; ratio compound to copper 1:3) was “able to cleave at a ratio of 1:3”, the “cleavage of plasmid DNA” value ([1]; ratios compound to copper 1:1, 1:2, 1:2.5) was “unable to cleave” and the “DNA binding activity of KLF4” value [2] was “Increased DNA binding activities”. The “tumour growth (size and weight)” value ([3]; 50 mg/kg/d, five days on 2 off, 5 weeks) was “able to inhibit tumour growth”, the tumor size ([3]; 100 mg/kg i.p., 5 days then 10 days interval, 2 cycles) was “Significant reduction in tumor size” and the GI50 [4] was 30 nM.

Reference: patent publication US8148392B2, “2-indolyl imidazo [4,5-d] phenanthroline derivatives and their use in the treatment of cancer” (Lorus Therapeutics Inc., priority 2005, dated 2012)
